# Reference: patent US5192799A, “Coumaran group containing amine compounds and their acid addition salts and quaternary ammonium salts and the use thereof as anti arrhythmic agents and as psychotropic agents” (Mitsui Petrochemical Industries, Ltd., priority 1987, dated 1993)
# Read-outs that look alike come from different tables or passages of the source.
# Experiments:
# [1] = biological target: T1, serotonine 2 receptor (Rattus norvegicus, UniProt P14842); test: [3H]ketanserin binding assay (affinity for serotonine 2 receptor); set-up: species or system Wistar male rat; conditions: rat frontal cortex, 1 nM [3H] ketanserin, 37° C., 10 minutes
# T1 construct: frontal cortex fraction prepared from the brain of a Wistar male rat; from tissue; host or cells: rat brain frontal cortex (Wistar, male), membrane fraction
# T1 sequence (P14842 whole entry): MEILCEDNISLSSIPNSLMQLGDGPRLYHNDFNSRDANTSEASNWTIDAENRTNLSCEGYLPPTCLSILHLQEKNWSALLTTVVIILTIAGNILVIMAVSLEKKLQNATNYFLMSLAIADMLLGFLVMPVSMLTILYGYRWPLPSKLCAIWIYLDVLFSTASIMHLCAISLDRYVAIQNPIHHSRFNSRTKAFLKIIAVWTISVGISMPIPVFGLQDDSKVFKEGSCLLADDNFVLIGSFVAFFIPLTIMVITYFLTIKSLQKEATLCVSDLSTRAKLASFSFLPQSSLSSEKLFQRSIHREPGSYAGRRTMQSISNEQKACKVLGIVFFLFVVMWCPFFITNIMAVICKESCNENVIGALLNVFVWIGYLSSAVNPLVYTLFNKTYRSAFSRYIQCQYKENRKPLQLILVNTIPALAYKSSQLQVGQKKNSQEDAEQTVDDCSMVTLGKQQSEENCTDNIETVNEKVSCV
# Method: (§1) Striatal membranes fractions were prepared from a rat brain, and the affinity of the compounds of this invention on dopamine 2 receptors was determined by using [^3 H] spiperone assay from membranes fractions as an index. Moreover, frontal cortex membranes were prepared from a rat brain, and the affinity of the test drugs on serotonine 2 receptor was determined by using [^3 H] ketenserin binding assay. It was shown that the compounds of general formula (1) of the invention have marked anti-dopamine activity and anti-serotonine activity.
# [^3 H] ketanserin binding assay
# The affinity of the compound of the invention was determined on the basis of the ability to substitute [^3 H] ketanserin from a frontal cortex fraction prepared from the brain of a Wistar male rat.
# (§2) The rat was decapitated, and the brain was obtained. The frontal cortex was homogenized in 40 volumes of 50 mM Tris-HCl buffer (pH 7.6), and then centrifuged. The pellets were again homogenized in 100 volumes of the same buffer, and used in a binding test. The binding test was conducted by the following procedure.
# (§3) The frontal cortex (original tissue weight 1 mg/ml), 100 microliters of a test drug and 1 nM of [^3 H] ketanserin were incubated at 37° C. for 10 minutes in 50 mM Tris-HCl buffer (pH 7.6). Then, the reaction mixture was suction-filtered through a glass fiber filter (Watmann GF/B) and washed with a buffer three times.
# (§4) The filter was put in a scintillation cocktail (ACSII, Amersham Co.), and after mixing, left to stand overnight. The radioactivity held on the filter was measured by a liquid scintillation counter. The nonspecific binding was measured in the presence of 1 μM of methysergide. The concentration of the test drug which inhibited 50% of a specific binding was determined from the graph and defined as IC5. Ki was calculated from the following equation. [formula]
# [2] = biological target: T2, dopamine 2 receptor (Rattus norvegicus, UniProt P61169); test: [3H]spiperone binding assay (affinity for dopamine 2 receptor); set-up: species or system Wistar-strain male rat; conditions: rat striatal membranes, 0.5 nM [3H] spiperone, 37° C., 10 minutes
# T2 construct: membrane fractions prepared from the brain a Wistarstrain male rat; from tissue; host or cells: rat brain striatum (Wistar, male), membrane fraction
# T2 sequence (P61169 whole entry): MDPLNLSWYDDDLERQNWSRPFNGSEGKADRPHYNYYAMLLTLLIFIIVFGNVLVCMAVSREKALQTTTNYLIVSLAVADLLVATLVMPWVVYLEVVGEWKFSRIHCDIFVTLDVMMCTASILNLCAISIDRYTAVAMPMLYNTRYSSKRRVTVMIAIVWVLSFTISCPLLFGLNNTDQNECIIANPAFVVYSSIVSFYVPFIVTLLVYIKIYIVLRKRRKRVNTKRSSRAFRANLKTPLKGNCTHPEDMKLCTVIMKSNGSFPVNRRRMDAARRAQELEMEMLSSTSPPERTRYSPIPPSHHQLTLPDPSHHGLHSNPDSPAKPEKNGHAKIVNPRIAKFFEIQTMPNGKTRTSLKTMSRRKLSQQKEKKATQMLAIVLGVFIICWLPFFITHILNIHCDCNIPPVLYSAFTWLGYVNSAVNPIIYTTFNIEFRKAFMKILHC
# Method: as §1
# [^3 H]spiperone binding assay
# The affinity of the compounds of this invention to the dopamine 2 receptor was determined on the basis of the ability to substitute [^3 H] spiperone from stratal membrane fractions prepared from the brain a Wistarstrain male rat.
# as §2, with “striatum” for “frontal cortex”, “50” for “100”
# as §3, with “The stria” for “The frontal cortex”, “weight 20” for “weight 1”, “and 0.5” for “and 1”, “H] spiperone” for “H] ketanserin”
# as §4, with “(+) butaclamol.” for “methysergide.”, “IC50.” for “IC5.”
# [3] = in vivo; conditions: mouse, in vivo
# Method: By using male ddY-strain 5-week old mice (3 to 4 per group), the compounds of general formula (1) were each administered orally or intraperitoneally as a solution in saline or as a suspension in methyl cellulose, and 24 hours after the administration, the toxicity of the compounds was evaluated.
# [4] = tested on: Purkinje fiber; test: Effect on APD (APD75, field-stimulated right ventricular free wall); type: cell-based, adult mongrel dog; conditions: Canis lupus familiaris, purkinje, 20 min, 20 minutes incubation, 37° C., 1 Hz, control before drug = 100%, read-out: APD75 % (percent change in APD75); for activation at 1 µg/mL: dose 1 μg/ml; for activation at 3 µg/mL: dose 3 μg/ml; for activation at 10 µg/mL: dose 10 μg/ml
# Method: The pharmacological effects of the compounds of this invention represented by general formula (1) were studied. By using the heart of an adult mongrel dog, the activity of the compounds of general formula (1) were tested in vitro and in vivo. The heart of an anaethetized dog was extracted and suspended in a chamber at 37° C. in Tyrode's solution. The drug was added to Tyrode's solution being perfused through the heart specimen, and electrophysiological effects of the drug on cardiac action potential duration (APD) and maximum rate of depolarization were studied. An anaethetized dog was cut open at the chest.
# An adult mongrel dog was anaethetized with intravenous administration of pentobarbital, 30 mg/kg. The heart was quickly removed, and the right ventricular free wall was dissected in the Tyrode's solution. The right ventricular free wall was fixed within an incubator at 37° C., and field stimulation at 1 Hz was carried out. Intracellular potentials were measured by piercing glass microelectrodes (10-20 megaohms) into the Purkinje fiber and the wave form of cardiac action potential drawn on an oscilloBraun tube via an amplifier was analyzed by a computer. Value of APD was obtained at 75% of full repolarization (APD75). The drug was added to Tyrode's solution (20 ml) perfused through the specimen. The effect of the drug was expressed by a percent change in APD75 after incubation for 20 minutes with the control value of APD before application of the drug being taken as 100%.
# [5] = tested on: right ventricle (effective refractory period); test: Activity on ERP of the right ventricle; type: in vivo, adult mongrel dog; conditions: Canis lupus familiaris, ERP before drug = 100%, read-out: ERP % (ERP prolonging activity)
# Method: The pharmacological effects of the compounds of this invention represented by general formula (1) were studied. By using the heart of an adult mongrel dog, the activity of the compounds of general formula (1) were tested in vitro and in vivo. The heart of an anaethetized dog was extracted and suspended in a chamber at 37° C. in Tyrode's solution. The drug was added to Tyrode's solution being perfused through the heart specimen, and electrophysiological effects of the drug on cardiac action potential duration (APD) and maximum rate of depolarization were studied. An anaethetized dog was cut open at the chest. […] In an anaethetized and open-chested adult mongrel dug, a silver-silver chloride electrode was sutured to the right ventricle, and ventricular pacing was performed at a stimulation interval of 400 msec for a duration time of 4 msec, twice diastolic threshold. Then, a small amount of alcohol was injected through the sinus artery to extinguish the pacemaker activity, and under ventricular pacing, ERP was measured. Ten stimulations were taken as one train, and the interval between trains when the response to the first stimulation disappeared was defined as ERP. […] ERP before drug administration (intravenously or intraduodenally) was taken as 100%, and ERP prolonging activity of the drugs was expressed by %.
# [6] = po, LD50 p.o., p.o., 24 hours after administration, male ddY mice
Ki [1],Ki [2],SMILES,"LD50 at 24 h [3, 6]",activation at 3 µg/mL [4],"change in vivo at 1 mg/kg ([5]; iv, 1 mg/kg i.v.)",further results
> 600 nM,> 400 nM,O=C1COc2cc(OCCCN3CCC(N4CCCCC4)CC3)ccc21 [Compound 1228],–,–,–,–
> 600 nM,> 400 nM,CC(=O)Oc1coc2cc(OCCCN3CCC(Cc4ccccc4)CC3)ccc12 [Compound 1344],–,–,–,–
> 600 nM,> 400 nM,O=C1COc2cc(OCCCN(Cc3ccccc3)Cc3ccccc3)ccc21 [Compound 176],–,–,–,–
> 600 nM,> 400 nM,O=C1COc2cc(OCCCN3CCN(c4ccccn4)CC3)ccc21 [Compound 1264],–,–,–,–
> 600 nM,> 400 nM,O=C1COc2cc(OCCCN3CCN(Cc4ccccc4)CC3)ccc21 [Compound 1182],–,–,–,–
> 600 nM,> 400 nM,CN1CCN(CCCOc2ccc3c(c2)OCC3=O)CC1 [Compound 1178],–,–,–,–
227 nM,> 400 nM,O=C1NC(=O)c2cc(OCCCN3CCC(Cc4ccccc4)CC3)ccc21 [Compound 1334],–,–,–,–
> 600 nM,> 400 nM,O=C1COc2cc(OCCCN3CCc4ccccc4C3)ccc21 [Compound 1162],–,–,–,–
–,–,CC1CCCCN1CCCOc1ccc2c(c1)OCC2=O (stereo not drawn) [Compound 1114],> 300 mg/kg,22%,3%,"change in vivo at 3 mg/kg ([5]; iv, 3 mg/kg i.v.): 8%; activation at 1 µg/mL [4]: 11%; activation at 10 µg/mL [4]: 35%"
–,–,CCCCCCCN(CC)CCCOc1ccc2c(c1OC)OCC2=O [Compound 244],~300 mg/kg,9%,9%,"change in vivo at 0.1 mg/kg ([5]; iv, 0.1 mg/kg i.v.): 0%; change in vivo at 0.3 mg/kg ([5]; iv, 0.3 mg/kg i.v.): 9%; change in vivo at 3 mg/kg ([5]; iv, 3 mg/kg i.v.): 17%; activation at 1 µg/mL [4]: 6%; activation at 10 µg/mL [4]: 11%"
315 nM,> 400 nM,CN1C(=O)Cc2cnc(N3CCN(CCCOc4ccc5c(c4)OCC5=O)CC3)nc21 [Compound 1186],–,–,–,–
–,–,O=C1COc2cc(OCCCN3CCC(CO)CC3)ccc21 [Compound 1290],–,11%,11.8%,"change in vivo at 0.1 mg/kg ([5]; iv, 0.1 mg/kg i.v.): 0%; change in vivo at 0.3 mg/kg ([5]; iv, 0.3 mg/kg i.v.): 5.9%; change in vivo at 3 mg/kg ([5]; iv, 3 mg/kg i.v.): 17.7%; activation at 10 µg/mL [4]: 28%; LD50 at 24 h ([3]; po): < 300 mg/kg"
–,–,CCN(CCCOc1ccc2c(c1)OCC2=O)CC1CCCO1 (stereo not drawn) [Compound 184],~300 mg/kg,16%,6.3 ± 3.4%,"change in vivo at 0.1 mg/kg ([5]; iv, 0.1 mg/kg i.v.): 4.3 ± 2.2%; change in vivo at 0.3 mg/kg ([5]; iv, 0.3 mg/kg i.v.): 6.3 ± 3.4%; activation at 10 µg/mL [4]: 31%"
–,–,"CCCCCCC[N+](CC)(CC)CCCOc1ccc2c(c1)OCC2=O.[Br-] [Compound 286, (3-oxo-6-coumaranoxypropyl)diethylheptyl ammonium bromide]",300 to 1000 mg/kg,29%,15.7 ± 5.5%,"change in vivo at 0.1 mg/kg ([5]; iv, 0.1 mg/kg i.v.): 5.7 ± 0.3%; change in vivo at 0.3 mg/kg ([5]; iv, 0.3 mg/kg i.v.): 15.7 ± 5.5%; change in vivo at 3 mg/kg ([5]; iv, 3 mg/kg i.v.): 17.7 ± 7.3%; change in vivo at 0.1 mg/kg ([5]; 0.1 mg/kg i.d.): 0%; change in vivo at 0.3 mg/kg ([5]; 0.3 mg/kg i.d.): 0%; change in vivo at 1 mg/kg ([5]; 1 mg/kg i.d.): 10%; change in vivo at 3 mg/kg ([5]; 3 mg/kg i.d.): 19%; activation at 1 µg/mL [4]: 17%; LD50 at 24 h ([3]; ip, LD50 i.p., i.p., 24 hours after administration, male ddY mice): 100 to 500 mg/kg"
–,–,CC(C)N(CCCOc1ccc2c(c1)OCC2=O)C(C)C [Compound 116],> 300 mg/kg,38%,9%,"change in vivo at 0.1 mg/kg ([5]; iv, 0.1 mg/kg i.v.): 3%; change in vivo at 0.3 mg/kg ([5]; iv, 0.3 mg/kg i.v.): 7%; change in vivo at 3 mg/kg ([5]; iv, 3 mg/kg i.v.): 9%; activation at 1 µg/mL [4]: 14%; activation at 10 µg/mL [4]: 44%"
> 600 nM,> 400 nM,O=c1cc(-c2ccccc2)c2ccc(OCCCN3CCC(Cc4ccccc4)CC3)cc2o1 [Compound 1330],–,–,–,–

SMILES,Ki [1],Ki [2],"LD50 at 24 h [3, 6]",activation at 3 µg/mL [4],"change in vivo at 1 mg/kg ([5]; iv, 1 mg/kg i.v.)",further results
O=C1COc2cc(OCCCN3CCC4(CC3)C(=O)NCN4c3ccccc3)ccc21 [Compound 1246],> 600 nM,> 400 nM,–,–,–,–
O=C1COc2cc(OCCCN3CCC(O)(c4ccc(Cl)cc4)CC3)ccc21 [Compound 1154],> 298 nM,> 400 nM,–,–,–,–
O=C1COc2cc(OCCCN3CCC4(CC3)OCCO4)ccc21 [Compound 1298],382 nM,> 400 nM,> 300 mg/kg,–,–,–
O=C1COc2cc(OCCCN3CCC(O)(c4ccccc4)CC3)ccc21 [Compound 1150],306 nM,> 400 nM,–,12%,–,activation at 1 µg/mL [4]: 4%; activation at 10 µg/mL [4]: 14%; LD50 at 24 h ([3]; po): > 300 mg/kg
CS(=O)(=O)NC1CCN(CCCOc2ccc3c(c2)OCC3=O)CC1 [Compound 1286],475 nM,> 400 nM,> 300 mg/kg,7%,16.6%,"change in vivo at 0.1 mg/kg ([5]; iv, 0.1 mg/kg i.v.): 8.3%; change in vivo at 0.3 mg/kg ([5]; iv, 0.3 mg/kg i.v.): 8.3%; change in vivo at 3 mg/kg ([5]; iv, 3 mg/kg i.v.): 16.6%"
O=C1COc2cc(OCCCN3CCC(c4ccccc4)CC3)ccc21 [Compound 1138],173 nM,329 nM,–,–,–,–
